Measurements reported in the NIST ThermoML archive (doi:10.1016/j.fluid.2011.12.029).
Numbers after ± are expanded uncertainties.

Conditions: Liquid, Vibrating tube method

## CCCCCCCC[n+]1cccc(C)c1.F[B-](F)(F)F [N-octyl-3-methylpyridinium tetrafluoroborate]
283.15 K, 100 kPa
  mass density: 1106.25 ± 1.1 kg/m3
283.15 K, 5000 kPa
  mass density: 1108.56 ± 1.1 kg/m3
283.15 K, 10000 kPa
  mass density: 1110.95 ± 1.1 kg/m3
283.15 K, 15000 kPa
  mass density: 1113.26 ± 1.1 kg/m3
283.15 K, 20000 kPa
  mass density: 1115.53 ± 1.2 kg/m3
283.15 K, 25000 kPa
  mass density: 1117.71 ± 1.2 kg/m3
283.15 K, 30000 kPa
  mass density: 1119.8 ± 1.2 kg/m3
283.15 K, 35000 kPa
  mass density: 1121.93 ± 1.3 kg/m3
283.15 K, 40000 kPa
  mass density: 1123.9 ± 1.3 kg/m3
283.15 K, 45000 kPa
  mass density: 1125.95 ± 1.3 kg/m3
283.15 K, 50000 kPa
  mass density: 1127.8 ± 1.4 kg/m3
283.15 K, 55000 kPa
  mass density: 1129.77 ± 1.4 kg/m3
283.15 K, 60000 kPa
  mass density: 1131.58 ± 1.4 kg/m3
283.15 K, 65000 kPa
  mass density: 1133.37 ± 1.5 kg/m3
288.15 K, 100 kPa
  mass density: 1102.88 ± 1.1 kg/m3
288.15 K, 5000 kPa
  mass density: 1105.22 ± 1.1 kg/m3
288.15 K, 10000 kPa
  mass density: 1107.61 ± 1.1 kg/m3
288.15 K, 15000 kPa
  mass density: 1109.98 ± 1.1 kg/m3
288.15 K, 20000 kPa
  mass density: 1112.32 ± 1.2 kg/m3
288.15 K, 25000 kPa
  mass density: 1114.52 ± 1.2 kg/m3
288.15 K, 30000 kPa
  mass density: 1116.64 ± 1.2 kg/m3
288.15 K, 35000 kPa
  mass density: 1118.71 ± 1.2 kg/m3
288.15 K, 40000 kPa
  mass density: 1120.76 ± 1.3 kg/m3
288.15 K, 45000 kPa
  mass density: 1122.74 ± 1.3 kg/m3
288.15 K, 50000 kPa
  mass density: 1124.72 ± 1.3 kg/m3
288.15 K, 55000 kPa
  mass density: 1126.63 ± 1.4 kg/m3
288.15 K, 60000 kPa
  mass density: 1128.51 ± 1.4 kg/m3
288.15 K, 65000 kPa
  mass density: 1130.3 ± 1.4 kg/m3
293.15 K, 100 kPa
  mass density: 1099.53 ± 1.1 kg/m3
293.15 K, 5000 kPa
  mass density: 1102.06 ± 1.1 kg/m3
293.15 K, 10000 kPa
  mass density: 1104.51 ± 1.1 kg/m3
293.15 K, 15000 kPa
  mass density: 1106.86 ± 1.1 kg/m3
293.15 K, 20000 kPa
  mass density: 1109.18 ± 1.1 kg/m3
293.15 K, 25000 kPa
  mass density: 1111.4 ± 1.2 kg/m3
293.15 K, 30000 kPa
  mass density: 1113.56 ± 1.2 kg/m3
293.15 K, 35000 kPa
  mass density: 1115.81 ± 1.2 kg/m3
293.15 K, 40000 kPa
  mass density: 1117.82 ± 1.3 kg/m3
293.15 K, 45000 kPa
  mass density: 1119.87 ± 1.3 kg/m3
293.15 K, 50000 kPa
  mass density: 1121.88 ± 1.3 kg/m3
293.15 K, 55000 kPa
  mass density: 1123.82 ± 1.4 kg/m3
293.15 K, 60000 kPa
  mass density: 1125.67 ± 1.4 kg/m3
293.15 K, 65000 kPa
  mass density: 1127.47 ± 1.4 kg/m3
298.15 K, 100 kPa
  mass density: 1096.08 ± 1 kg/m3
298.15 K, 5000 kPa
  mass density: 1098.54 ± 1.1 kg/m3
298.15 K, 10000 kPa
  mass density: 1101.04 ± 1.1 kg/m3
298.15 K, 15000 kPa
  mass density: 1103.47 ± 1.1 kg/m3
298.15 K, 20000 kPa
  mass density: 1105.84 ± 1.1 kg/m3
298.15 K, 25000 kPa
  mass density: 1108.07 ± 1.2 kg/m3
298.15 K, 30000 kPa
  mass density: 1110.33 ± 1.2 kg/m3
298.15 K, 35000 kPa
  mass density: 1112.49 ± 1.2 kg/m3
298.15 K, 40000 kPa
  mass density: 1114.56 ± 1.3 kg/m3
298.15 K, 45000 kPa
  mass density: 1116.65 ± 1.3 kg/m3
298.15 K, 50000 kPa
  mass density: 1118.65 ± 1.3 kg/m3
298.15 K, 55000 kPa
  mass density: 1120.63 ± 1.4 kg/m3
298.15 K, 60000 kPa
  mass density: 1122.5 ± 1.4 kg/m3
298.15 K, 65000 kPa
  mass density: 1124.52 ± 1.4 kg/m3
303.15 K, 100 kPa
  mass density: 1092.83 ± 1 kg/m3
303.15 K, 5000 kPa
  mass density: 1095.28 ± 1.1 kg/m3
303.15 K, 10000 kPa
  mass density: 1097.84 ± 1.1 kg/m3
303.15 K, 15000 kPa
  mass density: 1100.3 ± 1.1 kg/m3
303.15 K, 20000 kPa
  mass density: 1102.65 ± 1.1 kg/m3
303.15 K, 25000 kPa
  mass density: 1104.99 ± 1.2 kg/m3
303.15 K, 30000 kPa
  mass density: 1107.32 ± 1.2 kg/m3
303.15 K, 35000 kPa
  mass density: 1109.47 ± 1.2 kg/m3
303.15 K, 40000 kPa
  mass density: 1111.6 ± 1.2 kg/m3
303.15 K, 45000 kPa
  mass density: 1113.68 ± 1.3 kg/m3
303.15 K, 50000 kPa
  mass density: 1115.8 ± 1.3 kg/m3
303.15 K, 55000 kPa
  mass density: 1117.71 ± 1.3 kg/m3
303.15 K, 60000 kPa
  mass density: 1119.7 ± 1.4 kg/m3
303.15 K, 65000 kPa
  mass density: 1121.56 ± 1.4 kg/m3
308.15 K, 100 kPa
  mass density: 1089.26 ± 1 kg/m3
308.15 K, 5000 kPa
  mass density: 1091.74 ± 1.1 kg/m3
308.15 K, 10000 kPa
  mass density: 1094.35 ± 1.1 kg/m3
308.15 K, 15000 kPa
  mass density: 1096.91 ± 1.1 kg/m3
308.15 K, 20000 kPa
  mass density: 1099.29 ± 1.1 kg/m3
308.15 K, 25000 kPa
  mass density: 1101.65 ± 1.1 kg/m3
308.15 K, 30000 kPa
  mass density: 1103.95 ± 1.2 kg/m3
308.15 K, 35000 kPa
  mass density: 1106.18 ± 1.2 kg/m3
308.15 K, 40000 kPa
  mass density: 1108.37 ± 1.2 kg/m3
308.15 K, 45000 kPa
  mass density: 1110.56 ± 1.3 kg/m3
308.15 K, 50000 kPa
  mass density: 1112.6 ± 1.3 kg/m3
308.15 K, 55000 kPa
  mass density: 1114.63 ± 1.3 kg/m3
308.15 K, 60000 kPa
  mass density: 1116.66 ± 1.4 kg/m3
308.15 K, 65000 kPa
  mass density: 1118.6 ± 1.4 kg/m3
313.15 K, 100 kPa
  mass density: 1085.88 ± 1 kg/m3
313.15 K, 5000 kPa
  mass density: 1088.47 ± 1 kg/m3
313.15 K, 10000 kPa
  mass density: 1091.09 ± 1.1 kg/m3
313.15 K, 15000 kPa
  mass density: 1093.69 ± 1.1 kg/m3
313.15 K, 20000 kPa
  mass density: 1096.09 ± 1.1 kg/m3
313.15 K, 25000 kPa
  mass density: 1098.54 ± 1.1 kg/m3
313.15 K, 30000 kPa
  mass density: 1100.84 ± 1.2 kg/m3
313.15 K, 35000 kPa
  mass density: 1103.14 ± 1.2 kg/m3
313.15 K, 40000 kPa
  mass density: 1105.37 ± 1.2 kg/m3
313.15 K, 45000 kPa
  mass density: 1107.51 ± 1.2 kg/m3
313.15 K, 50000 kPa
  mass density: 1109.66 ± 1.3 kg/m3
313.15 K, 55000 kPa
  mass density: 1111.71 ± 1.3 kg/m3
313.15 K, 60000 kPa
  mass density: 1113.7 ± 1.3 kg/m3
313.15 K, 65000 kPa
  mass density: 1115.65 ± 1.4 kg/m3
318.15 K, 100 kPa
  mass density: 1082.49 ± 1 kg/m3
318.15 K, 5000 kPa
  mass density: 1085.16 ± 1 kg/m3
318.15 K, 10000 kPa
  mass density: 1087.86 ± 1.1 kg/m3
318.15 K, 15000 kPa
  mass density: 1090.4 ± 1.1 kg/m3
318.15 K, 20000 kPa
  mass density: 1092.87 ± 1.1 kg/m3
318.15 K, 25000 kPa
  mass density: 1095.34 ± 1.1 kg/m3
318.15 K, 30000 kPa
  mass density: 1097.71 ± 1.2 kg/m3
318.15 K, 35000 kPa
  mass density: 1100 ± 1.2 kg/m3
318.15 K, 40000 kPa
  mass density: 1102.23 ± 1.2 kg/m3
318.15 K, 45000 kPa
  mass density: 1104.4 ± 1.2 kg/m3
318.15 K, 50000 kPa
  mass density: 1106.52 ± 1.3 kg/m3
318.15 K, 55000 kPa
  mass density: 1108.63 ± 1.3 kg/m3
318.15 K, 60000 kPa
  mass density: 1110.64 ± 1.3 kg/m3
318.15 K, 65000 kPa
  mass density: 1112.69 ± 1.4 kg/m3
323.15 K, 100 kPa
  mass density: 1079.26 ± 1 kg/m3
323.15 K, 5000 kPa
  mass density: 1082.03 ± 1 kg/m3
323.15 K, 10000 kPa
  mass density: 1084.69 ± 1.1 kg/m3
323.15 K, 15000 kPa
  mass density: 1087.27 ± 1.1 kg/m3
323.15 K, 20000 kPa
  mass density: 1089.69 ± 1.1 kg/m3
323.15 K, 25000 kPa
  mass density: 1092.26 ± 1.1 kg/m3
323.15 K, 30000 kPa
  mass density: 1094.65 ± 1.1 kg/m3
323.15 K, 35000 kPa
  mass density: 1096.93 ± 1.2 kg/m3
323.15 K, 40000 kPa
  mass density: 1099.23 ± 1.2 kg/m3
323.15 K, 45000 kPa
  mass density: 1101.43 ± 1.2 kg/m3
323.15 K, 50000 kPa
  mass density: 1103.63 ± 1.3 kg/m3
323.15 K, 55000 kPa
  mass density: 1105.69 ± 1.3 kg/m3
323.15 K, 60000 kPa
  mass density: 1107.78 ± 1.3 kg/m3
323.15 K, 65000 kPa
  mass density: 1109.77 ± 1.4 kg/m3
328.15 K, 100 kPa
  mass density: 1075.89 ± 0.99 kg/m3
328.15 K, 5000 kPa
  mass density: 1078.67 ± 1 kg/m3
328.15 K, 10000 kPa
  mass density: 1081.32 ± 1 kg/m3
328.15 K, 15000 kPa
  mass density: 1083.91 ± 1.1 kg/m3
328.15 K, 20000 kPa
  mass density: 1086.53 ± 1.1 kg/m3
328.15 K, 25000 kPa
  mass density: 1089.05 ± 1.1 kg/m3
328.15 K, 30000 kPa
  mass density: 1091.41 ± 1.1 kg/m3
328.15 K, 35000 kPa
  mass density: 1093.82 ± 1.2 kg/m3
328.15 K, 40000 kPa
  mass density: 1096.15 ± 1.2 kg/m3
328.15 K, 45000 kPa
  mass density: 1098.38 ± 1.2 kg/m3
328.15 K, 50000 kPa
  mass density: 1100.54 ± 1.2 kg/m3
328.15 K, 55000 kPa
  mass density: 1102.61 ± 1.3 kg/m3
328.15 K, 60000 kPa
  mass density: 1104.75 ± 1.3 kg/m3
328.15 K, 65000 kPa
  mass density: 1106.82 ± 1.3 kg/m3
333.15 K, 100 kPa
  mass density: 1072.64 ± 0.99 kg/m3
333.15 K, 5000 kPa
  mass density: 1075.39 ± 1 kg/m3
333.15 K, 10000 kPa
  mass density: 1078.24 ± 1 kg/m3
333.15 K, 15000 kPa
  mass density: 1080.9 ± 1.1 kg/m3
333.15 K, 20000 kPa
  mass density: 1083.46 ± 1.1 kg/m3
333.15 K, 25000 kPa
  mass density: 1086.03 ± 1.1 kg/m3
333.15 K, 30000 kPa
  mass density: 1088.48 ± 1.1 kg/m3
333.15 K, 35000 kPa
  mass density: 1090.88 ± 1.1 kg/m3
333.15 K, 40000 kPa
  mass density: 1093.31 ± 1.2 kg/m3
333.15 K, 45000 kPa
  mass density: 1095.48 ± 1.2 kg/m3
333.15 K, 50000 kPa
  mass density: 1097.71 ± 1.2 kg/m3
333.15 K, 55000 kPa
  mass density: 1099.8 ± 1.3 kg/m3
333.15 K, 60000 kPa
  mass density: 1101.97 ± 1.3 kg/m3
333.15 K, 65000 kPa
  mass density: 1104.05 ± 1.3 kg/m3
